Literature values, collected in patent publication US20110189317A1, “Method for Inhibiting the Activity of DPP-IV and Lowering Blood Glucose Level” (Naturalendo Tech Co., Ltd., priority 2006, published 2011).
Read-outs that look alike come from different tables or passages of the source.

Tests used:
[1] = combined administration of Metformin with LAF237 or placebo, after 52 weeks; p<0.0001
insulin secretion = details: read-out: EC50 (half-maximal effective concentration), insulin secretion

Compound	HbA1c difference [1]	EC50 (insulin secretion)	blood glucose level (GLP-1 dropping for 4 hours, patients with secondary failure on oral hypoglycemic agent)	blood glucose level (intravenously, continuously for 1 week, regular diet)
N#C[C@@H]1CCCN1C(=O)CNC12CC3CC(CC(O)(C3)C1)C2 [LAF237]	1.1±0.2%	–	–	–
GLP-1: incretin hormone composed of total 30 amino acids, facilitates insulin secretion	–	~0.01 nM	complete normalization in the blood glucose level	nearly normal blood glucose level
